Data as given in patent publication EP4748844A1, “AZETIDINE COMPOUND AND MEDICAL USE THEREOF” (SHANGHAI INSTITUTE OF MATERIA MEDICA, CHINESE ACADEMY OF …, priority 2023, dated 2025).

Legend:
[1] = tested on: ISG gene expression induced by MSA-2 in human THP1-Dual cells; assay: Inhibition of MSA-2-induced ISG gene expression in human THP1-Dual cells (QUANTI-Luc); assay type: cell-based; conditions: STING agonist MSA-2 10 µM, incubated for 24 hours
Method: 10 µL of compound diluted with PBS/physiological saline was added to each well of a 96 well cell culture plate. The STING agonist was MSA-2, which was added to the counted cell suspension at a final concentration of 10 µM. For the control group without compounds, 10 µL of PBS/physiological saline containing 2% DMSO was added. 3 replicate wells were set in each group. THP1-Dual cells were counted and adjusted to a cell concentration of 4×10^5/mL, and 190 µL of cells containing STING agonist were added to each well for incubation. Therefore, the final volume of each test well was 200 µL, the content of DMSO was 0.1%, and the final concentration of the compound tested was 10/3.3/1.1/0.4/0.13/0.04/0.013/0.004 µM, incubated for 24 hours. In addition, 190 µL of cells without STING agonist and 10 µL of physiological saline containing 2% DMSO were added to the blank group. 3 replicate wells were set in each group.
After 24 hours, 20 µL of culture medium for THP1-Dual cells was taken from each well and transferred to a new 96 well plate with photopermeable bottom. 50 µL of the luciferase detection reagent QUANTI-Luc™ was added, and the […] was immediately measured (avoid light). Result analysis:Inhibition rate (%) = (Con(Lum)−Treated(Lum))/Con(Lum) × 100% [formula]
(§1) The IC50 calculation of inhibitors was implemented using the Graphpad Prism 8 software's calculation method log (inhibitor) vs. response - Variable slope (four parameters), with a constrain interval of 0-100.

[2] = tested on: DMXAA induced ISG gene expression in mouse RAW-Lucia cells; assay: Inhibition of DMXAA-induced ISG gene expression in mouse RAW-Lucia cells (QUANTI-Luc); assay type: cell-based; conditions: STING agonist DMXAA 50 µM, incubated for 24 hours
Method: 10 µL of compound diluted with PBS/physiological saline was added to each well of a 96 well cell culture plate. The STING agonist was DMXAA, which was added to the counted cell suspension at a final concentration of 50 µM. For the control group without compounds, 10 µL of PBS/physiological saline containing 2% DMSO was added. 3 replicate wells were set in each group. RAW-Lucia cells were counted and adjusted to a cell concentration of 4×10^5/mL, and […] of cells were added to each well for incubation. Therefore, the final volume of each test well was 200 µL, the content of DMSO was 0.1%, and the final concentration of the compound tested was 10/3.3/1.1/0.4/0.13/0.04/0.013/0.004 µM. The final concentration of STING agonist DMXAA was 50 µM. The mixture was incubated for 24 hours. In addition, 200 µL of culture medium was added to the blank group. 3 replicate wells were set in each group.
After 24 hours, 20 µL of culture medium was taken from each well and transferred to a new 96 well plate with photopermeable bottom. 50 µL of the luciferase detection reagent QUANTI-Luc™ was added, and the […] was immediately measured (avoid light).
Result analysis: Inhibition rate (%) = (Con(Lum)−Treated(Lum))/Con(Lum) × 100% [formula]
as §1

| Compound | IC50 [1] | IC50 [2] |
| --- | --- | --- |
| CC1(C)C(=O)N(Cc2cc(F)cc(C(F)(F)F)c2)c2cc(C(=O)Nc3c[nH]c4cc(F)c(F)cc34)ccc21 [Example I-111] | 123 nM | 29.1 nM |
| CC1(C)C(=O)N(Cc2cccc3ccoc23)c2cc(C(=O)Nc3c[nH]c4cc(F)c(F)cc34)ccc21 [Example I-127, 1-(benzofuran-7-ylmethyl)-N-(5,6-difluoro-1H-indol-3-yl)-3,3-dimethyl-2-oxoindolin-6-carboxamide] | 291 nM |  |
| O=C(Nc1c[nH]c2ccccc12)c1cc2c(s1)SCC(=O)N2CC1CC1 [Example I-116, 1-(cyclopropylmethyl)-N-(1H-indol-3-yl)-2-oxo-2,3-dihydro-1H-thieno[2,3-b][1,4]thiazin-6-carboxamide] | 206 nM |  |
| CC1(C)C(=O)N(Cc2ccoc2)c2cc(C(=O)Nc3c[nH]c4ccccc34)sc21 [Example I-86, 4-(furan-3-ylmethyl)-N-(1H-indol-3-yl)-6,6-dimethyl-5-oxo-5,6-dihydro-4H-thieno[3,2-b]pyrrol-2-carboxamide] | 221 nM |  |
| CC1(C)C(=O)N(Cc2ccccc2)c2cc(C(=O)Nc3c[nH]c4ccccc34)sc21 [Example I-87, 4-benzyl-N-(1H-indol-3-yl)-6,6-dimethyl-5-oxo-5,6-dihydro-4H-thieno[3,2-b]pyrrol-2-carboxamide] | 149 nM |  |
| CC1(C)C(=C=O)N(CCc2ccccc2)c2cc(C(=O)Nc3c[nH]c4ccc(F)cc34)ccc21 [Example I-107, N-(5-fluoro-1H-indol-3-yl)-3,3-dimethyl-2-carbonyl-1-phenethylindolin-6-carboxamide] | 147 nM | 2.72 nM |
| O=C(Nc1c[nH]c2ccccc12)c1cc2c(s1)SCC(=O)N2Cc1ccco1 [Example I-118, 1-(furan-2-ylmethyl)-N-(1H-indol-3-yl)-2-oxo-2,3-dihydro-1H-thieno[2,3-b] [1,4]thiazin-6-carboxamide] | 232 nM | 45.2 nM |
| CC1(C)C(=O)N(Cc2ccccc2-c2ccccc2)c2cc(C(=O)Nc3c[nH]c4ccccc34)ccc21 [Example I-95, 1-([1,1'-biphenyl]-2-ylmethyl)-N-(1H-indol-3-yl)-3,3-dimethyl-2-oxoindolin-6-carboxamide] | 228 nM |  |
| CC1(C)C(=O)N(CC2CN(c3cc(F)cc(C(F)(F)F)c3)C2)c2cc(C(=O)Nc3c[nH]c4ccc(F)cc34)ccc21 [Example I-28] |  | 62 nM |
| O=C(Nc1c[nH]c2ccccc12)c1cc2c(s1)SCC(=O)N2Cc1cccs1 [Example I-114, N-(1H-indol-3-yl)-2-oxo-1-(thien-2-ylmethyl)-2,3-dihydro-1H-thieno[2,3-b][1,4]thiazin-6-carboxamide] | 164 nM |  |
| 1-((4-chlorothien-3-yl)methyl)-N-(1H-indol-3-yl)-3,3-dimethyl-2-oxoindolin-6-carboxamide [Example I-89] | 119 nM |  |
| CC1(C)C(=O)N(Cc2cc(F)cc(C(F)(F)F)c2)c2cc(C(=O)Nc3c[nH]c4ccccc34)sc21 [Example I-88, 4-(3-fluoro-5-(trifluoromethyl)benzyl)-N-(1H-indol-3-yl)-6,6-dimethyl-5-oxo-5,6-dihydro-4H-thieno[3,2-b]pyrrol-2-carboxamide] | 143 nM |  |
| O=C(Nc1c[nH]c2ccccc12)c1cc2c(s1)SCC(=O)N2CC1CCOCC1 [Example I-119, N-(1H-indol-3-yl)-2-oxo-1-((tetrahydro-2H-pyran-4-yl)methyl)-2,3-dihydro-1H-thieno[2,3-b][1,4]thiazin-6-carboxamide] |  | 45.5 nM |

More lines, in order of falling IC50 [1], values ahead:

| IC50 [1] | IC50 [2] | Compound |
| --- | --- | --- |
| 117 nM |  | CC1(C)C(=O)N(Cc2coc(Cl)c2)c2cc(C(=O)Nc3c[nH]c4ccccc34)sc21 [Example I-91, 4-((5-chlorofuran-3-yl)methyl)-N-(1H-indol-3-yl)-6,6-dimethyl-5-oxo-5,6-dihydro-4H-thieno[3,2-b]pyrrol-2-carboxamide] |
| 106 nM |  | CC1(C)C(=O)N(Cc2ccc3[nH]ccc3c2)c2cc(C(=O)Nc3c[nH]c4ccccc34)ccc21 [Example I-94, 1-(indol-5-ylmethyl)-N-(1H-indol-3-yl)-3,3-dimethyl-2-oxoindolin-6-carboxamide] |
| 98 nM |  | CC1(C)C(=O)N(Cc2csc(C(F)(F)F)c2)c2cc(C(=O)Nc3c[nH]c4ccccc34)sc21 [Example I-90, N-(1H-indol-3-yl)-6,6-dimethyl-5-oxo-4-((5-(trifluoromethyl)thien-3-yl)methyl)-5,6-dihydro-4H-thieno[3,2-b]pyrrol-2-carboxamide] |
| 74.8 nM |  | CC1(C)C(=O)N(Cc2ccc3occc3c2)c2cc(C(=O)Nc3c[nH]c4ccccc34)ccc21 [Example I-93, 1-(benzofuran-5-ylmethyl)-N-(1H-indol-3-yl)-3,3-dimethyl-2-oxoindolin-6-carboxamide] |
| 69 nM | 5.71 nM | O=C(Nc1c[nH]c2ccc(Cl)cc12)c1cc2c(s1)SCC(=O)N2Cc1cc(F)cc(C(F)(F)F)c1 [Example I-123, N-(5-chloro-1H-indol-3-yl)-1-(3-fluoro-5-(trifluoromethyl)benzyl)-2-oxo-2,3-dihydro-1H-thieno[2,3-b][1,4]thiazin-6-carboxamide] |
| 59.6 nM | 15.1 nM | CC(c1ccccc1)N1C(=O)C(C)(C)c2ccc(C(=O)Nc3c[nH]c4ccccc34)cc21 (stereo not drawn) [Example I-100, N-(1H-indol-3-yl)-3,3-dimethyl-2-oxo-1-(1-phenethyl)indolin-6-carboxamide] |
| 46.5 nM | 41.9 nM | O=C(Nc1c[nH]c2ccccc12)c1cc2c(s1)SCC(=O)N2Cc1ccsc1 [Example I-112, N-(1H-indol-3-yl)-2-oxo-1-(thien-3-ylmethyl)-2,3-dihydro-1H-thieno[2,3-b][1,4]thiazin-6-carboxamide] |
| 39.4 nM | 39.4 nM | CC1(C)C(=O)N(Cc2cccc3ccoc23)c2cc(C(=O)Nc3c[nH]c4ccc(Cl)cc34)ccc21 [Example I-128, 1-(benzofuran-7-ylmethyl)-N-(5-chloro-1H-indol-3-yl)-3,3-dimethyl-2-oxoindolin-6-carboxamide] |
| 33.1 nM | 8.69 nM | CC1(C)C(=O)N(Cc2cc(F)cc(C(F)(F)F)c2)c2cc(C(=O)Nc3c[nH]c4ccccc34)ccc21 [Example I-104] |
| 32.1 nM | 11.8 nM | CC1(C)C(=O)N(Cc2csc3ccccc23)c2cc(C(=O)Nc3c[nH]c4ccccc34)ccc21 [Example I-109, 1-(benzo[b]thien-3-ylmethyl)-N-(1H-indol-3-yl)-3,3-dimethyl-2-indolin-6-carboxamide] |
| 28.8 nM | 94 nM | CC1(C)C(=O)N(Cc2ccc3c(c2)OCO3)c2cc(C(=O)Nc3c[nH]c4ccccc34)ccc21 [Example I-92, 1-(benzo[d][1,3]dihydroxyl-5-ylmethyl)-N-(1H-indol-3-yl)-3,3-dimethyl-2-oxoindol-6-carboxamide] |
| 20.5 nM | 4.69 nM | CC1(C)C(=O)N(Cc2csc(Cl)c2)c2cc(C(=O)Nc3c[nH]c4ccccc34)ccc21 [Example I-84, 1-((5-chlorothien-3-yl)methyl)-N-(1H-indol-3-yl)-3,3-dimethyl-2-oxoindolin-6-carboxamide] |
| 16.5 nM | 19.4 nM | CC1(C)C(=O)N(Cc2ccsc2)c2cc(C(=O)Nc3c[nH]c4ccccc34)sc21 [Example I-85, N-(1H-indol-3-yl)-6,6-dimethyl-5-oxo-4-(thien-3-ylmethyl)-5,6-dihydro-4H-thieno[3,2-b]pyrrol-2-carboxamide] |
| 12.2 nM | 7.51 nM | O=C(Nc1c[nH]c2ccccc12)c1cc2c(s1)SCC(=O)N2Cc1cc(F)cc(C(F)(F)F)c1 [Example I-115, 1-(3-fluoro-5-(trifluoromethyl)benzyl)-N-(1H-indol-3-yl)-2-oxo-2,3-dihydro-1H-thieno[2,3-b][1,4]thiazin-6-carboxamide] |
| 3.3 nM | 17.1 nM | CC1(C)C(=O)N(Cc2cccc3ccoc23)c2cc(C(=O)Nc3c[nH]c4ccccc34)ccc21 [Example I-97, 1-(benzofuran-7-ylmethyl)-N-(1H-indol-3-yl)-3,3-dimethyl-2-oxoindolin-6-carboxamide] |
